{"source": "patent US10633382B2", "about": "“Imidazopyrazinones, pyrazolopyrimidinones and pyrazolopyridinones as PDE1 inhibitors” (H. Lundbeck A/S, priority 2016, dated 2020)", "format_in_all_cases": "biochemical", "key": {"PDE9": {"target": "PDE9 (Homo sapiens, UniProt O76083)", "sequence (O76083 whole entry)": "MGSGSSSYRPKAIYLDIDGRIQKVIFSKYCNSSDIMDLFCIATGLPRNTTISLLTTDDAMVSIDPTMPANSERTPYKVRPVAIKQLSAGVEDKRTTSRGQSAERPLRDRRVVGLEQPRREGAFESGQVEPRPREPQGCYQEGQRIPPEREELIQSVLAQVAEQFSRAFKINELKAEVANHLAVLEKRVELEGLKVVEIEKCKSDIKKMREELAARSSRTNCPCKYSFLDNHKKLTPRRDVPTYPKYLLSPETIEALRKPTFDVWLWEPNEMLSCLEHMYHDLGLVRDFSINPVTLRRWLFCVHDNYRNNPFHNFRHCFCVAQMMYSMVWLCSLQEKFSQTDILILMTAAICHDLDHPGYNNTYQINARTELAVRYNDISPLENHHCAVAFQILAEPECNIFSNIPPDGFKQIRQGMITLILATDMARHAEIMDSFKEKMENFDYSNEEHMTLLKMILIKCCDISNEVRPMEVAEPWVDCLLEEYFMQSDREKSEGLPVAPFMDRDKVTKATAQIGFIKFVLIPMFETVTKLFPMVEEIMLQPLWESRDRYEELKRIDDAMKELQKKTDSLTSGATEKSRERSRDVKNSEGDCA", "test": "PDE9 inhibition assay", "conditions": "10 μM of inhibitor", "method": "A PDE9 assay may for example, be performed as follows: The assay is performed in 60 μL samples containing a fixed amount of the relevant PDE enzyme (sufficient to convert 20-25% of the cyclic nucleotide substrate), a buffer (50 mM HEPES pH 7.6; 10 mM MgCl2; 0.02% Tween20), 0.1 mg/ml BSA, 225 pCi of ^3H-labelled cyclic nucleotide substrate, tritium labeled cAMP to a final concentration of 5 nM and varying amounts of inhibitors. Reactions are initiated by addition of the cyclic nucleotide substrate, and reactions are allowed to proceed for one hr at room temperature before being terminated through mixing with 15 μL 8 mg/mL yttrium silicate SPA beads (Amersham). The beads are allowed to settle for one hr in the dark before the plates are counted in a Wallac 1450 Microbeta counter. The measured signal can be converted to activity relative to an uninhibited control (100%) and IC50 values can be calculated using the Xlfit extension to EXCEL.\nIn the context of the present invention the assay was performed in 60 μL assay buffer (50 mM HEPES pH 7.6; 10 mM MgCl2; 0.02% Tween20) containing enough PDE9 to convert 20-25% of 10 nM ^3H-cAMP, and […] 10 μM of inhibitor. Following 1 hr incubation the reactions were terminated by addition of 15 μL 8 mg/mL yttrium silicate SPA beads (Amersham). The beads were allowed to settle for one hr in the dark before the plates were counted in a Wallac 1450 Microbeta counter."}, "PDE1C": {"target": "PDE1C (Homo sapiens, UniProt Q14123)", "sequence (Q14123 whole entry)": "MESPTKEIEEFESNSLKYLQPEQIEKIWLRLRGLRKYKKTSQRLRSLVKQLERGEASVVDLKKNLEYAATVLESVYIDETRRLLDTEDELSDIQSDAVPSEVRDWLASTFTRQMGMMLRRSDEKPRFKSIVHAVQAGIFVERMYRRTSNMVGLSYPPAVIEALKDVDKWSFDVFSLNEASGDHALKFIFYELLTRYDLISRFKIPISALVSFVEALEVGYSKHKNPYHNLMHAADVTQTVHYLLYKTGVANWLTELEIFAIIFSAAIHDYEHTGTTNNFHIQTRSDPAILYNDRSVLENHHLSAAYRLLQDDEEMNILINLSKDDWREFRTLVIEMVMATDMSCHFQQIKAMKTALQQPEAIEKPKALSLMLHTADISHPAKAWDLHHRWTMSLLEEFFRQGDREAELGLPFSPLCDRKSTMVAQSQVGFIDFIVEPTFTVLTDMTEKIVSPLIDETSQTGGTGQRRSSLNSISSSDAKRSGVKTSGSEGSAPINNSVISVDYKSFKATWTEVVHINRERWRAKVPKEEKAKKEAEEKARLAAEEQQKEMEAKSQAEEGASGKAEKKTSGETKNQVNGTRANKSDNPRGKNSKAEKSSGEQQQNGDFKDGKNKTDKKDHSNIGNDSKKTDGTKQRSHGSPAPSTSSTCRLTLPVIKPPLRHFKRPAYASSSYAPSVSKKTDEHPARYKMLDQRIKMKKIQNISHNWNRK", "test": "PDE1 inhibition assay (PDE1C)", "conditions": "15 nM tritium labelled cAMP, SPA", "method": "(§1) PDE1A, PDE1B and PDE1C assays were performed as follows: the assays were performed in 60 μL samples containing a fixed amount of the PDE1 enzyme (sufficient to convert 20-25% of the cyclic nucleotide substrate), a buffer (50 mM HEPES (4-(2-hydroxyethyl)-1-piperazineethanesulfonic acid) pH 7.6; 10 mM MgCl2; 0.02% Tween20), 0.1 mg/ml BSA (bovine serum albumin), 15 nM tritium labelled cAMP and varying amounts of inhibitors. Reactions were initiated by addition of the cyclic nucleotide substrate, and reactions were allowed to proceed for 1 hr at room temperature before being terminated through mixing with 20 μL (0.2 mg) yttrium silicate SPA beads (PerkinElmer). The beads were allowed to settle for 1 hour in the dark before the plates were counted in a Wallac 1450 Microbeta counter. The measured signals were converted to activity relative to an uninhibited control (100%) and IC50 values were calculated using XlFit (model 205, IDBS)."}, "PDE1B": {"target": "PDE1B (Homo sapiens, UniProt Q01064)", "sequence (Q01064 whole entry)": "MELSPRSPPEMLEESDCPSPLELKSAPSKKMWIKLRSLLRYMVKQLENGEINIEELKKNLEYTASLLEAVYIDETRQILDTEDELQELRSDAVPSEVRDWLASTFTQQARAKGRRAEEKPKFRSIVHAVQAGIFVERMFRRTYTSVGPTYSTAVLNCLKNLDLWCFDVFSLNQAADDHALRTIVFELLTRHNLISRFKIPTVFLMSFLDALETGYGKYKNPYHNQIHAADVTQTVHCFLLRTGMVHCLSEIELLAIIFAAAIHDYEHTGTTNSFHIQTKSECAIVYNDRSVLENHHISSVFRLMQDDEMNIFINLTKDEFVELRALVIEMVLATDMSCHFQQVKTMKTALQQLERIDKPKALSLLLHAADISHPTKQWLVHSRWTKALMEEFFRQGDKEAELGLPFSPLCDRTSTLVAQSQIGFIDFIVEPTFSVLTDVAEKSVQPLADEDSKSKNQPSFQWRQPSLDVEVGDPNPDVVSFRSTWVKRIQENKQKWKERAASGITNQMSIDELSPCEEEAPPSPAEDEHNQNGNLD", "test": "PDE1 inhibition assay (PDE1B)", "conditions": "15 nM tritium labelled cAMP, SPA", "method": "as §1"}, "PDE1A": {"target": "PDE1A (Homo sapiens, UniProt P54750)", "sequence (P54750 whole entry)": "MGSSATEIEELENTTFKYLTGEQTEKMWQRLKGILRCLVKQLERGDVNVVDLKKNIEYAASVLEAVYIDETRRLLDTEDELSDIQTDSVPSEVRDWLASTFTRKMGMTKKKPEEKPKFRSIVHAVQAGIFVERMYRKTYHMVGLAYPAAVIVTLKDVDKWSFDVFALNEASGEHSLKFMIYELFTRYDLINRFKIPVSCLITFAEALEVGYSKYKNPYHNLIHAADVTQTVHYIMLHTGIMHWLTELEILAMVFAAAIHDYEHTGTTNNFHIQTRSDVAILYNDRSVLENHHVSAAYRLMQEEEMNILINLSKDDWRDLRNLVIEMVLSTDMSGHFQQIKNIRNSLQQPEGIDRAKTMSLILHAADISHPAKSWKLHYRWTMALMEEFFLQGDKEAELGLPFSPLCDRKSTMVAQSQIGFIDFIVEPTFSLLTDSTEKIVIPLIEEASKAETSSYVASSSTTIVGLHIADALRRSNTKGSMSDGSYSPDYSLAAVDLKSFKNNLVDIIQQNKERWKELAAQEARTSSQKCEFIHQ", "test": "PDE1 inhibition assay (PDE1A)", "conditions": "15 nM tritium labelled cAMP, SPA", "method": "as §1"}}, "note": "pIC50: −log10 of the molar value.", "data": [{"molecule": "COc1cccc(-c2ccc(Cc3cn4c(C5CCOCC5)ncc4c(=O)n3C)cc2)n1", "note": "[Example 16, 6-[[4-(6-methoxy-2-pyridyl)phenyl]methyl]-7-methyl-3-tetrahydropyran-4-yl-imidazo[1,5-a]pyrazin-8-one]", "values": [{"measurement": "inhibition at 10 µM", "setting": "PDE9", "result": 7, "unit": "%"}, {"measurement": "pIC50", "setting": "PDE1C", "result": 7.38}, {"measurement": "pIC50", "setting": "PDE1B", "result": 8.33}, {"measurement": "pIC50", "setting": "PDE1A", "result": 7.62}]}, {"molecule": "COc1cccnc1-c1ccc(Cc2cn3c(C4CCOCC4)ncc3c(=O)n2C)cc1", "note": "[Example 17, 6-[[4-(3-methoxy-2-pyridyl)phenyl]methyl]-7-methyl-3-tetrahydropyran-4-yl-imidazo[1,5-a]pyrazin-8-one]", "values": [{"measurement": "inhibition at 10 µM", "setting": "PDE9", "result": 2, "unit": "%"}, {"measurement": "pIC50", "setting": "PDE1C", "result": 6.79}, {"measurement": "pIC50", "setting": "PDE1B", "result": 7.68}, {"measurement": "pIC50", "setting": "PDE1A", "result": 7.06}]}, {"molecule": "Cc1ccccc1-c1ccc(Cc2cn3c(C4CCOCC4)ncc3c(=O)n2C)cc1", "note": "[Example 18, 7-methyl-6-[[4-(o-tolyl)phenyl]methyl]-3-tetrahydropyran-4-yl-imidazo[1,5-a]pyrazin-8-one]", "values": [{"measurement": "inhibition at 10 µM", "setting": "PDE9", "result": 9, "unit": "%"}, {"measurement": "pIC50", "setting": "PDE1C", "result": 6.62}, {"measurement": "pIC50", "setting": "PDE1B", "result": 7.64}, {"measurement": "pIC50", "setting": "PDE1A", "result": 6.93}]}, {"molecule": "Cn1c(Cc2ccc(-c3ccccc3)cc2)cn2c(C3CCOCC3)ncc2c1=O", "note": "[Example 19, 7-methyl-6-[(4-phenylphenyl)methyl]-3-tetrahydropyran-4-yl-imidazo[1,5-a]pyrazin-8-one]", "values": [{"measurement": "inhibition at 10 µM", "setting": "PDE9", "result": 7, "unit": "%"}, {"measurement": "pIC50", "setting": "PDE1C", "result": 7.21}, {"measurement": "pIC50", "setting": "PDE1B", "result": 8.14}, {"measurement": "pIC50", "setting": "PDE1A", "result": 7.55}]}, {"molecule": "Cn1cnc(-c2ccc(Cc3cn4c(C5CCOCC5)ncc4c(=O)n3C)cc2)c1", "note": "[Example 20, 7-methyl-6-(4-(1-methyl-1H-imidazol-4-yl)benzyl)-3-(tetrahydro-2H-pyran-4-yl)imidazo[1,5-a]pyrazin-8(7H)-one]", "values": [{"measurement": "inhibition at 10 µM", "setting": "PDE9", "result": -6, "unit": "%"}, {"measurement": "pIC50", "setting": "PDE1C", "result": 6.80}, {"measurement": "pIC50", "setting": "PDE1B", "result": 7.77}, {"measurement": "pIC50", "setting": "PDE1A", "result": 7.12}]}, {"molecule": "CC(C)c1ncc2c(=O)n(C)c(Cc3ccc(-c4cccc(F)n4)cc3)cn12", "note": "[Example 21, 6-[[4-(6-fluoro-2-pyridyl)phenyl]methyl]-3-isopropyl-7-methyl-imidazo[1,5-a]pyrazin-8-one]", "values": [{"measurement": "inhibition at 10 µM", "setting": "PDE9", "result": 13, "unit": "%"}, {"measurement": "pIC50", "setting": "PDE1C", "result": 7.03}, {"measurement": "pIC50", "setting": "PDE1B", "result": 7.89}, {"measurement": "pIC50", "setting": "PDE1A", "result": 7.44}]}, {"molecule": "CCCc1ncc2c(=O)n(C)c(Cc3ccc(-c4cccc(F)n4)cc3)cn12", "note": "[Example 22, 6-(4-(6-fluoropyridin-2-yl)benzyl)-7-methyl-3-propylimidazo[1,5-a]pyrazin-8(7H)-one]", "values": [{"measurement": "inhibition at 10 µM", "setting": "PDE9", "result": 2, "unit": "%"}, {"measurement": "pIC50", "setting": "PDE1C", "result": 6.51}, {"measurement": "pIC50", "setting": "PDE1B", "result": 7.40}, {"measurement": "pIC50", "setting": "PDE1A", "result": 6.77}]}, {"molecule": "CCc1ncc2c(=O)n(C)c(Cc3ccc(-c4cccc(F)n4)cc3)cn12", "note": "[Example 23, 3-ethyl-6-(4-(6-fluoropyridin-2-yl)benzyl)-7-methylimidazo[1,5-a]pyrazin-8(7H)-one]", "values": [{"measurement": "inhibition at 10 µM", "setting": "PDE9", "result": 17, "unit": "%"}, {"measurement": "pIC50", "setting": "PDE1C", "result": 6.24}, {"measurement": "pIC50", "setting": "PDE1B", "result": 7.25}, {"measurement": "pIC50", "setting": "PDE1A", "result": 6.75}]}, {"molecule": "Cn1c(Cc2ccc(-c3cnccn3)cc2)cn2c(C3CCOCC3)ncc2c1=O", "note": "[Example 24, 7-methyl-6-(4-(pyrazin-2-yl)benzyl)-3-(tetrahydro-2H-pyran-4-yl)imidazo[1,5-a]pyrazin-8(7H)-one]", "values": [{"measurement": "inhibition at 10 µM", "setting": "PDE9", "result": -2, "unit": "%"}, {"measurement": "pIC50", "setting": "PDE1C", "result": 6.70}, {"measurement": "pIC50", "setting": "PDE1B", "result": 7.52}, {"measurement": "pIC50", "setting": "PDE1A", "result": 7.04}]}, {"molecule": "Cn1c(Cc2ccc(-c3cccc(F)n3)cc2)cn2c(CC(F)(F)F)ncc2c1=O", "note": "[Example 25, 6-(4-(6-fluoropyridin-2-yl)benzyl)-7-methyl-3-(2,2,2-trifluoroethyl)imidazo[1,5-a]pyrazin-8(7H)-one]", "values": [{"measurement": "inhibition at 10 µM", "setting": "PDE9", "result": 9, "unit": "%"}, {"measurement": "pIC50", "setting": "PDE1C", "result": 6.40}, {"measurement": "pIC50", "setting": "PDE1B", "result": 7.05}, {"measurement": "pIC50", "setting": "PDE1A", "result": 6.66}]}, {"molecule": "Cn1c(Cc2ccc(-c3ccncn3)cc2)cn2c(C3CCOCC3)ncc2c1=O", "note": "[Example 26, 7-methyl-6-(4-(pyrimidin-4-yl)benzyl)-3-(tetrahydro-2H-pyran-4-yl)imidazo[1,5-a]pyrazin-8(7H)-one]", "values": [{"measurement": "inhibition at 10 µM", "setting": "PDE9", "result": 14, "unit": "%"}, {"measurement": "pIC50", "setting": "PDE1C", "result": 6.83}, {"measurement": "pIC50", "setting": "PDE1B", "result": 7.80}, {"measurement": "pIC50", "setting": "PDE1A", "result": 7.17}]}]}
